Results taken from PubChem BioAssay AID1259407 (Chemical Carcinogenesis Research Information System (CCRIS), 2018).
Active and inactive are the calls of the source. How the calls were made is not given here.

Tested on: CCRIS mutagenicity, Ames/micronucleus/aberration tests
Assay: CCRIS mutagenicity studies

Structure (SMILES): C=CC#N
- mutagenic call (Test System: AMES SALMONELLA TYPHIMURIUM, Strain/Indicator: TA1535, Metabolic Activation: HAMSTER LIVER S-9, AROCLOR 1254 (5, 10, OR 30%), Method: PREINCUBATION): active; positive
- mutagenic call (Test System: AMES SALMONELLA TYPHIMURIUM, Strain/Indicator: TA1535, Metabolic Activation: HAMSTER, LIVER, S-9, AROCLOR 1254 (2.5-20%), Method: STANDARD PLATE): active; positive
- mutagenic call (Test System: AMES SALMONELLA TYPHIMURIUM, Strain/Indicator: TA1535, Metabolic Activation: HAMSTER, LIVER, S-9, AROCLOR 1254 (10%), Method: STANDARD PLATE): active; positive
- mutagenic call (Test System: AMES SALMONELLA TYPHIMURIUM, Strain/Indicator: TA1535, Metabolic Activation: HAMSTER, LIVER, S-9, AROCLOR 1254 (10, 20%), Method: PREINCUBATION): active; positive
- mutagenic call (Test System: AMES SALMONELLA TYPHIMURIUM, Strain/Indicator: TA1535, Metabolic Activation: HAMSTER, LIVER, S-9, AROCLOR 1254 (20%), Method: STANDARD PLATE): active; positive
- mutagenic call (Test System: AMES SALMONELLA TYPHIMURIUM, Strain/Indicator: TA1535, Metabolic Activation: MOUSE, LIVER, S-9, AROCLOR 1254, Method: LIQUID, VAPOR, SPOT): active; positive
- mutagenic call (Test System: AMES SALMONELLA TYPHIMURIUM, Strain/Indicator: TA1535, Metabolic Activation: NONE, Method: PREINCUBATION): inactive; negative
- mutagenic call (Test System: AMES SALMONELLA TYPHIMURIUM, Strain/Indicator: TA1535, Metabolic Activation: NONE, Method: STANDARD PLATE): inactive; negative
- mutagenic call (Test System: AMES SALMONELLA TYPHIMURIUM, Strain/Indicator: TA1535, Metabolic Activation: RAT LIVER S-9, AROCLOR 1254 (5%), Method: PREINCUBATION): active; positive
- mutagenic call (Test System: AMES SALMONELLA TYPHIMURIUM, Strain/Indicator: TA1535, Metabolic Activation: RAT LIVER S-9, AROCLOR 1254 (5,10, OR 30%), Method: PREINCUBATION): active; positive
- mutagenic call (Test System: AMES SALMONELLA TYPHIMURIUM, Strain/Indicator: TA1535, Metabolic Activation: RAT LIVER S-9, AROCLOR 1254 (10% OR 30%), Method: PREINCUBATION): active; positive
- mutagenic call (Test System: AMES SALMONELLA TYPHIMURIUM, Strain/Indicator: TA1535, Metabolic Activation: RAT, LIVER, S-9, 3-METHYLCHOLANTHRENE OR PCB OR PHENOBARBITAL, Method: DESICCATOR): active; positive
- mutagenic call (Test System: AMES SALMONELLA TYPHIMURIUM, Strain/Indicator: TA1535, Metabolic Activation: RAT, LIVER, S-9, AROCLOR 1254, Method: STANDARD PLATE): inactive; negative
- mutagenic call (Test System: AMES SALMONELLA TYPHIMURIUM, Strain/Indicator: TA1537, Metabolic Activation: NONE, Method: STANDARD PLATE): inactive; negative
- mutagenic call (Test System: AMES SALMONELLA TYPHIMURIUM, Strain/Indicator: TA1537, Metabolic Activation: RAT, LIVER, S-9, AROCLOR 1254, Method: STANDARD PLATE): inactive; negative
- mutagenic call (Test System: AMES SALMONELLA TYPHIMURIUM, Strain/Indicator: TA1538, Metabolic Activation: MOUSE, LIVER, S-9, AROCLOR 1254, Method: LIQUID, VAPOR, SPOT): active; positive
- mutagenic call (Test System: AMES SALMONELLA TYPHIMURIUM, Strain/Indicator: TA1538, Metabolic Activation: NONE, Method: STANDARD PLATE): inactive; negative
- mutagenic call (Test System: AMES SALMONELLA TYPHIMURIUM, Strain/Indicator: TA1538, Metabolic Activation: RAT, LIVER, S-9, AROCLOR 1254, Method: STANDARD PLATE): inactive; negative
- mutagenic call (Test System: AMES SALMONELLA TYPHIMURIUM, Strain/Indicator: TA1978, Metabolic Activation: MOUSE, LIVER, S-9, AROCLOR 1254, Method: VAPOR): active; positive
- mutagenic call (Test System: Ames Salmonella typhimurium, Strain/Indicator: YG7108pin3ERb5, Metabolic Activation: None, Method: Standard plate): inactive; negative
- mutagenic call (Test System: CHINESE HAMSTER V-79, Strain/Indicator: V-79 (HGPRT)/8-AZAGUANINE, Metabolic Activation: NONE, Method: REPLATING): inactive; negative
- mutagenic call (Test System: CHINESE HAMSTER V-79, Strain/Indicator: V-79 (HGPRT)/8-AZAGUANINE, Metabolic Activation: RAT, LIVER, S-9, AROCLOR 1254, Method: REPLATING): inactive; negative
- mutagenic call (Test System: E. COLI, Strain/Indicator: WP2, Metabolic Activation: NONE, Method: FLUCTUATION): active; positive
- mutagenic call (Test System: E. COLI, Strain/Indicator: WP2, Metabolic Activation: NONE, Method: STANDARD PLATE): active; positive
- mutagenic call (Test System: E. COLI, Strain/Indicator: WP2 UVRA, Metabolic Activation: NONE, Method: STANDARD PLATE): active; positive
- mutagenic call (Test System: MOUSE LYMPHOMA, Strain/Indicator: L5178Y (TK+/+)/OUABAIN, Metabolic Activation: NONE, Method: SUSPENSION/PLATE): inactive; negative
- mutagenic call (Test System: MOUSE LYMPHOMA, Strain/Indicator: L5178Y (TK+/+)/OUABAIN, Metabolic Activation: RAT LIVER S-9, AROCLOR 1254, Method: SUSPENSION/PLATE): inactive; negative
- mutagenic call (Test System: MOUSE LYMPHOMA, Strain/Indicator: L5178Y (TK+/TK-), Metabolic Activation: RAT, LIVER, S-9, Method: SUSPENSION/PLATE): active; positive
- mutagenic call (Test System: MOUSE LYMPHOMA, Strain/Indicator: L5178Y(TK+/TK-)/TRIFLUOROTHYMIDINE, Metabolic Activation: NONE, Method: SUSPENSION PLATE): active; positive
- mutagenic call (Test System: UDS HUMAN MAMMARY EPITHELIAL CELLS, Strain/Indicator: THY INCORP, Metabolic Activation: NONE, Method: AUTORADIOGRAPHY): inactive; negative
- mutagenic call (Test System: UDS PRIMARY RAT HEPATOCYTES, Strain/Indicator: THY INCORP, Metabolic Activation: NONE, Method: AUTORADIOGRAPHY): inactive; negative
- mutagenic call (Test System: UDS PRIMARY RAT HEPATOCYTES, Strain/Indicator: THY INCORP, Metabolic Activation: NONE, Method: IN VIVO-IN VITRO): inactive; negative
- mutagenic call (Test System: UDS PRIMARY RAT SPERMATOCYTES, Strain/Indicator: THY INCORP, Metabolic Activation: NONE, Method: IN VIVO-IN VITRO): inactive; negative
- mutagenic call (Test System: UDS RAT HEPATOCYTES, Strain/Indicator: THY INCORP, Metabolic Activation: NONE, Method: LIQUID SCINTILLATION COUNTING): active; positive
